Assays:
RPE cells = assay: RPE cell morphology after 10 days in retinoid; assay type: cell-based, human; conditions: 1 μm, 5% serum, on plastic
[1] = test system: rabbit cell injection model of PVR; assay: Rabbit cell injection model of PVR (RPE cells), intravitreous injection of retinoids; assay type: in vivo; conditions: for Any RD (%) / Total RD (%): 28 Days; for frequency and severity of traction retinal detachments versus vehicle: initial group, intravitreous injections of 100 μg; for frequency and severity of retinal detachments versus control: single intravitreous injection one day after RPE cell injection
Procedure: Briefly, pigmented rabbits were anesthetized with a subcutaneous injection of 5 mg/kg of xylazine and 25 mg/kg of ketamine, and the pupil of one eye was dilated with 2½% phenylephrine. Under direct observation 5×10^5 RPE cells were injected into the vitreous cavity just anterior to the optic nerve. […] .
Rabbits were examined by indirect ophthalmoscopy on days 7, 14 and 28 and traction retinal detachments were graded. […] . The localized clouds decreased in size and cleared over 2 to 3 weeks. There were no visible changes in the retina. […] .
It was felt that the hair loss and possibly the loss of appetite and death were due to systemic toxicity from drug that had gotten out of the eye. […] . None of the rabbits experienced hair loss and none died; their appetites appeared to be normal.

[2] = test system: traction retinal detachment in rabbits; assay: Traction retinal detachment in rabbits after human RPE cells, intravitreal injection of 168 and 299; assay type: in vivo, rabbit
[3] = test system: traction retinal detachment in rabbits; assay: Traction retinal detachment in rabbits after human RPE cells, subconjunctival injection; assay type: in vivo, rabbit; conditions: subconjunctival 0.3 mg once a day for five days
Source text: Due to the toxicity of certain RAR agonists and because the effects of retinoids are delayed in onset and reversible, methods for sustained release of the retinoids were investigated. […] The therapeutic effect of the RAR specific agonists was greater than that of RA, which is an agonist for both RXRs and RARs. There were no signs of any toxicity to the retina.

[4] = test system: traction retinal detachment in rabbits; assay: Traction retinal detachment in rabbits after human dermal fibroblasts, subconjunctival lipid microvesicles; assay type: in vivo, rabbit; conditions: human dermal fibroblasts
rabbit model of PVR [5] = conditions: 2 to 20 μg/ml SiO, 8 weeks; untreated controls 100%; cited from earlier work
rabbit model of PVR [6] = conditions: about 100 μg in biodegradable microspheres, vitreous cavity; cited from earlier work
human RPE cells = assay: [3H]thymidine incorporation / proliferation of cultured human RPE cells; conditions: for inhibition at 0.05 µM / inhibition at 0.1 µM / inhibition at 1 µM: Homo sapiens, RPE, read-out: Percent Inhibition of [3H]thymidine incorporation in RPE cells
Source text: Primary cultures of human retinal pigment epithelium (RPE) cells were established from eyes obtained from the Old Dominion Eye Bank (Richmond, Va.) or the Eye Bank of Maryland (Baltimore, Md.) using the technique described in P. A. Campochiaro, et al., Invest.
For [3H]thymidine incorporation, RPE cells at passage 3 or 4 were lightly trypsinized and plated in 16-mm wells of 24-well plates. The transfected cells were allowed to attach overnight and then the media containing 5% fetal bovine serum (FBS) were supplemented with retinoids or vehicle alone. Stock solutions (10^−3M) of retinoids were prepared in dimethylsulfoxide (DMSO) and stored as frozen aliquots until used; the highest final concentration of DMSO was 0.1% and was also used for control cultures. The media containing freshly prepared retinoids were changed every three days. At 7 or 10 days 2 μCi/ml of [^3H]thymidine (specific activity, 6.7 Ci/mM; New England Nuclear, Boston, Mass.) was added to the cultures and incorporation was measured as previously described (Leschey, supra).
The potency of retinoid agonists for inhibition of serum stimulated DNA synthesis in human RPE cells was tested. […] The cells were shifted to serum-free media containing the same concentration of retinoid and then pulsed with 10% serum for 18 hours, after which [^3H]thymidine incorporation was measured. Thymidine incorporation for cells grown in control medium was used to calculate the percent inhibition of thymidine incorporation induced by four concentrations of each retinoid (each concentration tested in triplicate) which were then used to generate each line.

[7] = test system: traction retinal detachment in rabbits; assay: Traction retinal detachment in rabbits after human dermal fibroblasts, subconjunctival injection
[8] = test system: traction retinal detachment in rabbits; assay: Traction retinal detachment in rabbits after human dermal fibroblasts, intravitreous lipid microvesicles
Source text: In this experiment the retinoid was incorporated into lipid microvesicles utilizing standard techniques.

retinas of the rabbits = assay: Ocular toxicity after single intravitreous injection, histopathology of retina; assay type: in vivo, rabbit; conditions: single intravitreous injection of 100 μg, two weeks after injection
Source text: The rabbits were killed two weeks after injection.

RARβ = molecular target: T1, RARβ (Homo sapiens, UniProt P10826); assay: Transactivation, ER/RAR-β hybrid receptor + ERE-CAT reporter cotransfected in HeLa cells
T1 sequence (P10826 183-417 limits assumed): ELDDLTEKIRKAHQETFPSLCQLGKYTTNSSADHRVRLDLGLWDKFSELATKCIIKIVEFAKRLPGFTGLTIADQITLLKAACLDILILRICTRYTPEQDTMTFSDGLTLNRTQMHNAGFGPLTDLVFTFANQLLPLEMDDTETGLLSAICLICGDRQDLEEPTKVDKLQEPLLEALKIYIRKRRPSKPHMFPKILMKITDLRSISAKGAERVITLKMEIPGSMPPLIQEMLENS

RARγ = molecular target: T2, RARγ (Homo sapiens, UniProt P13631); assay: Transactivation, ER/RAR-γ hybrid receptor + ERE-CAT reporter cotransfected in HeLa cells
T2 sequence (P13631 185-419 limits assumed): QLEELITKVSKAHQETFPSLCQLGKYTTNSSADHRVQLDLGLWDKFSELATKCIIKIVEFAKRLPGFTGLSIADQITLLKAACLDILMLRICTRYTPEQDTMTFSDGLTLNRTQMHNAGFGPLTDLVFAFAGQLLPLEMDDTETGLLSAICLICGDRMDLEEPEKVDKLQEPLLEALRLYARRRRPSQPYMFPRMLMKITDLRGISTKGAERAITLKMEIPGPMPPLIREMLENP

RXRα = molecular target: T3, RXRα (Homo sapiens, UniProt P19793); assay: Transactivation, ER/RXR-α hybrid receptor + ERE-CAT reporter cotransfected in HeLa cells
T3 sequence (P19793 227-458 limits assumed): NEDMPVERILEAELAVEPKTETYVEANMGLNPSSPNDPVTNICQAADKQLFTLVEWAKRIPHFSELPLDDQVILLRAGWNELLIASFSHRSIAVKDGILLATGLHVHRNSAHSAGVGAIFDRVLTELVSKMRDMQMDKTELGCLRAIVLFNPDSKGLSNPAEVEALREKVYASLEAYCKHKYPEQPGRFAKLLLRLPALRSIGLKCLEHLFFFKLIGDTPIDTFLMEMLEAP

[9] = 50 μg, single intravitreous injection
[10] = 100 μg intravitreous, two injections (day 1 and day 2 after cell injection)
[11] = 100 μg intravitreous, two injections
[12] = 100 μg, single intravitreous injection

**Q.** What does the source list for CC1=C(/C=C/C(C)=C/C=C/C(C)=C/C(=O)O)C(C)(C)CCC1 [All trans RA, all-trans retinoic acid, reference compound]?
**A.** RPE cell morphology / cell overgrowth (RPE cells): did not exhibit cell overgrowth; Partial RD at 14 Days (number of eyes) [1, 9]: 0; Partial RD at 28 Days (number of eyes) [1, 9]: 0; Total RD at 14 Days (number of eyes) [1, 9]: 4; Total RD at 28 Days (number of eyes) [1, 9]: 4; Any RD (%) [1, 9]: 66.7%; Total RD (%) [1, 9]: 66.7%; Partial RD at 14 Days (number of eyes) [1, 10]: 2; Partial RD at 28 Days (number of eyes) [1, 10]: 4; Total RD at 14 Days (number of eyes) [1, 10]: 0; Total RD at 28 Days (number of eyes) [1, 10]: 0; Any RD (%) [1, 11]: 44.4+ %; Total RD (%) [1, 11]: 0%; Partial RD at 14 Days (number of eyes) [1, 12]: 1; Partial RD at 28 Days (number of eyes) [1, 12]: 1; Total RD at 14 Days (number of eyes) [1, 12]: 0; Total RD at 28 Days (number of eyes) [1, 12]: 1; Any RD (%) [1, 12]: 28.6+ %; Total RD (%) [1, 12]: 14.3%; frequency and severity of traction retinal detachments versus vehicle [1]: fewer (p(0.05) and less severe traction retinal detachments; frequency and severity of retinal detachments versus control [1]: fewer (p(0.05) and less severe retinal detachments; % Any RD [2]: 100%; % Total RD [2]: 0%; RD at 7 Days, Partial [2]: 0; RD at 7 Days, Total [2]: 0; RD at 14 Days, Partial [2]: 0; RD at 14 Days, Total [2]: 0; RD at 28 Days, Partial [2]: 2; RD at 28 Days, Total [2]: 0; % Any RD [3]: 0%; % Total RD [3]: 0%; RD at 7 Days, Partial [3]: 0; RD at 7 Days, Total [3]: 0; RD at 14 Days, Partial [3]: 0; RD at 14 Days, Total [3]: 0; RD at 28 Days, Partial [3]: 0; RD at 28 Days, Total [3]: 0; % Any RD [4]: 63%; % Total RD [4]: 13%; RD at 7 Days, Partial [4]: 0; RD at 7 Days, Total [4]: 0; RD at 14 Days, Partial [4]: 0; RD at 14 Days, Total [4]: 1; RD at 28 Days, Partial [4]: 4; RD at 28 Days, Total [4]: 1; rate of retinal detachment (rabbit model of PVR [5]): 44.5%; tractional retinal detachment (TRD) (rabbit model of PVR [6]): significantly decreased tractional retinal detachment; inhibition at 0.05 µM (human RPE cells): 52.6%; inhibition at 0.1 µM (human RPE cells): 78.3%; inhibition at 1 µM (human RPE cells): 99.4%; inhibition of [3H]thymidine incorporation in RPE cells (human RPE cells; incubation for 7 days, FIG. 1): dose-dependent inhibition; % Any RD [7]: 50%; % Total RD [7]: 0%; RD at 7 Days, Partial [7]: 0; RD at 7 Days, Total [7]: 0; RD at 14 Days, Partial [7]: 0; RD at 14 Days, Total [7]: 0; RD at 28 Days, Partial [7]: 5; RD at 28 Days, Total [7]: 0; effect on retinal detachments [7]: decreased the number of retinal detachments and slowed the rate at which they developed; prevention of traction retinal detachment [8]: not effective; % Any RD ([8]; human dermal fibroblasts): 67%; % Total RD ([8]; human dermal fibroblasts): 67%; RD at 7 Days, Partial ([8]; human dermal fibroblasts): 1; RD at 7 Days, Total ([8]; human dermal fibroblasts): 0; RD at 14 Days, Partial ([8]; human dermal fibroblasts): 1; RD at 14 Days, Total ([8]; human dermal fibroblasts): 1; RD at 28 Days, Partial ([8]; human dermal fibroblasts): 0; RD at 28 Days, Total ([8]; human dermal fibroblasts): 4

**Q.** Which “RPE cell morphology / cell overgrowth” value (RPE cells) does the source give for C/C(=C\c1cc(C(=O)O)cs1)c1cc2c(cc1C)C(C)(C)CCC2(C)C [Compound 701, 2-[(E)-2-(5,6,7,8-tetrahydro-3,5,5,8,8-pentamethylnaphthaleen-2-yl)propen-1-yl]thiophene-4-carboxylic acid] here?
**A.** failed to prevent cell overgrowth

**Q.** And the “Partial RD at 14 Days (number of eyes)” value [1, 10]?
**A.** 3

**Q.** What about the “Partial RD at 28 Days (number of eyes)” value [1, 10] of the same molecule?
**A.** 2

**Q.** And the “Total RD at 14 Days (number of eyes)” value [1, 10]?
**A.** 3

**Q.** And the “Total RD at 28 Days (number of eyes)” value [1, 10]?
**A.** 5

**Q.** What about the “Any RD (%)” value [1, 11] of the same molecule?
**A.** 87.5%

**Q.** What about the “Total RD (%)” value [1, 11] of the same molecule?
**A.** 62.5%

**Q.** And the “Partial RD at 14 Days (number of eyes)” value [1, 12]?
**A.** 2

**Q.** What about the “Partial RD at 28 Days (number of eyes)” value [1, 12] of the same molecule?
**A.** 1

**Q.** And the “Total RD at 14 Days (number of eyes)” value [1, 12]?
**A.** 2

**Q.** And the “Total RD at 28 Days (number of eyes)” value [1, 12]?
**A.** 3

**Q.** And the “Any RD (%)” value [1, 12]?
**A.** 80%

**Q.** And the “Total RD (%)” value [1, 12]?
**A.** 60%

**Q.** And the “frequency and severity of traction retinal detachments versus vehicle” value [1]?
**A.** did not differ from controls

**Q.** What about the “frequency and severity of retinal detachments versus control” value [1] of the same molecule?
**A.** not statistically different from controls

**Q.** And the “inner retinal edema, histopathology” value (retinas of the rabbits)?
**A.** a few focal areas of inner retinal edema

**Q.** And the “retinal necrosis, histopathology” value (retinas of the rabbits)?
**A.** a few focal areas of retinal necrosis

**Q.** What about the inhibition at 0.05 µM (human RPE cells) of the same molecule?
**A.** 12%

**Q.** What about the inhibition at 0.1 µM (human RPE cells) of the same molecule?
**A.** 48.8%

**Q.** And the inhibition at 1 µM (human RPE cells)?
**A.** 74.6%

**Q.** What about the “inhibition of RPE [3H]thymidine incorporation” value (human RPE cells; incubation for 7 or 10 days) of the same molecule?
**A.** much less effective inhibitor

**Q.** And the EC50 (RARβ)?
**A.** 3000 nM

**Q.** And the EC50 (RARγ)?
**A.** 1000 nM

**Q.** And the EC50 (RXRα)?
**A.** 100 nM
